According to ChEMBL document CHEMBL1153080, “Cytotoxicity mechanisms of pyrazino[1,2-b]isoquinoline-4-ones and SAR studies” (2009):
Calls of active or inactive are those of the source. No cut-off for these calls is given here.

What was measured:
A549 [1] = assay: Growth inhibition of human A549 cells; type: functional
HT-29 [2] = assay: Cell cycle arrest in 0.2 ug/mL nocodazole pretreated human HT-29 cells assessed as accumulation at G1 phase at 41 ug/mL after 72 hrs using propidium iodide staining by flow cytometry; type: functional
HT-29 [3] = assay: Growth inhibition of human HT-29 cells; type: functional
HT-29 [4] = assay: Cell cycle arrest in human HT-29 cells assessed as accumulation at S phase at 41 ug/mL after 72 hrs using propidium iodide staining by flow cytometry; type: functional
HT-29 [5] = assay: Induction of apoptosis in human HT-29 cells at 41 ug/mL after 72 hrs using propidium iodide staining by flow cytometry; type: functional
HT-29 [6] = assay: Cytotoxicity against human HT-29 cells at < […] after 48 hrs by SRB assay; type: functional, cell-based
HT-29 [7] = assay: Cell cycle arrest in human HT-29 cells assessed as accumulation at G2/M phase at 41 ug/mL after 72 hrs using propidium iodide staining by flow cytometry; type: functional
HT-29 [8] = assay: Cell cycle arrest in human HT-29 cells assessed as accumulation at G1 phase at 41 ug/mL after 72 hrs using propidium iodide staining by flow cytometry; type: functional
HT-29 [9] = assay: Cytotoxicity against human HT-29 cells assessed as reduction in cell viability at 41 ug/mL after 48 hrs by MTT assay; type: functional; conditions: HT-29, 48 h
HT-29 [10] = assay: Induction Cyclin B1 protein degradation in human HT-29 cells at 41 ug/mL after 24 to 60 hrs by Western blotting; type: functional, cell-based
HT-29 [11] = assay: Induction of DNA damage signaling pathways in human HT-29 cells assessed as Chk2 phosphorylation at 41 ug/mL after 24 hrs by Western blotting; type: functional, cell-based
HT-29 [12] = assay: Cell cycle arrest in human HT-29 cells assessed as accumulation at G1 phase at 41 ug/mL after 24 hrs using propidium iodide staining by flow cytometry; type: functional
HT-29 [13] = assay: Induction of DNA damage signaling pathways in human HT-29 cells assessed as p53 phosphorylation at 41 ug/mL after 24 hrs by Western blotting; type: functional, cell-based
HT-29 [14] = assay: Induction Wee1 protein degradation in 10 uM proteasome inhibitor MG132 pretreated human HT-29 cells at 41 ug/mL after 6 to 36 hrs by Western blotting; type: functional, cell-based
HT-29 [15] = assay: Induction Wee1 protein degradation in 300 uM protein synthesis inhibitor cycloheximide pretreated human HT-29 cells at 41 ug/mL after 6 to 36 hrs by Western blotting; type: functional, cell-based
A549 [16] = assay: Cytotoxicity against human A549 cells at < […] after 48 hrs by SRB assay; type: functional, cell-based
HT-29 [17] = assay: Induction of apoptosis in human HT-29 cells at 41 ug/mL after 24 hrs using propidium iodide staining by flow cytometry; type: functional
HT-29 [18] = assay: Induction cdc2 protein degradation in 10 uM proteasome inhibitor MG132 pretreated human HT-29 cells at 41 ug/mL after 6 to 36 hrs by Western blotting; type: functional, cell-based
HT-29 [19] = assay: Induction Wee1 protein degradation in human HT-29 cells at 41 ug/mL after 24 to 60 hrs by Western blotting; type: functional, cell-based
HT-29 [20] = assay: Cell cycle arrest in 0.2 ug/mL nocodazole pretreated human HT-29 cells assessed as accumulation at G2/M phase at 41 ug/mL after 72 hrs using propidium iodide staining by flow cytometry; type: functional
HT-29 [21] = assay: Cell cycle arrest in human HT-29 cells assessed as accumulation at S phase at 41 ug/mL after 24 hrs using propidium iodide staining by flow cytometry; type: functional
HT-29 [22] = assay: Reduction of phosphorylated cdc2 protein level in 0.2 ug/mL nocodazole pretreated human HT-29 cells at 41 ug/mL after 24 to 72 hrs by Western blotting; type: functional, cell-based
HT-29 [23] = assay: Induction of apoptosis in 0.2 ug/mL nocodazole pretreated human HT-29 cells at 41 ug/mL after 72 hrs using propidium iodide staining by flow cytometry; type: functional
HT-29 [24] = assay: Cell cycle arrest in human HT-29 cells assessed as accumulation at G2/M phase at 41 ug/mL after 24 hrs using propidium iodide staining by flow cytometry; type: functional
HT-29 [25] = assay: Induction cdc2 protein degradation in 300 uM protein synthesis inhibitor cycloheximide pretreated human HT-29 cells at 41 ug/mL after 6 to 36 hrs by Western blotting; type: functional, cell-based
HT-29 [26] = assay: Cell cycle arrest in 0.2 ug/mL nocodazole pretreated human HT-29 cells assessed as accumulation at S phase at 41 ug/mL after 72 hrs using propidium iodide staining by flow cytometry; type: functional
HT-29 [27] = assay: Induction of increase in histone gamma-H2A.X levels in human HT-29 cells at 41 ug/mL after 24 to 60 hrs by Western blotting; type: functional, cell-based
MDA-MB-231 = assay: Cytotoxicity against human MDA-MB-231 cells at < […] after 48 hrs by SRB assay; type: functional, cell-based
HT-29 [28] = assay: Induction cdc2 protein degradation in human HT-29 cells at 41 ug/mL after 24 to 60 hrs by Western blotting; type: functional, cell-based
HT-29 [29] = assay: Induction of DNA damage signaling pathways in human HT-29 cells assessed as Chk1 phosphorylation at 41 ug/mL after 24 hrs by Western blotting; type: functional, cell-based

Q: How did the GI (A549 [1]) turn out when `COc1c(C)c(OC)c(OC)c2c1C[C@H]1[C@@H](O)N(C(=O)OC(C)C)CC(=O)N1[C@H]2COCc1ccccc1` was run?
A: 5.68 ×10⁻⁶ M

Q: For `COc1c(C)c(OC)c(OC)c2c1C[C@H]1CN(C(=O)OC(C)C)CC(=O)N1[C@H]2COCc1ccccc1`, which Activity (HT-29 [2]) is on record?
A: 31%

Q: And the GI (HT-29 [3])?
A: 1.95 ×10⁻⁷ M

Q: What about the Activity (HT-29 [4]) of the same compound?
A: 12.8%

Q: What about the Activity (HT-29 [5]) of the same compound?
A: 29.9%

Q: And the inhibition (HT-29 [6])?
A: Active

Q: And the Activity (HT-29 [7])?
A: 10.4%

Q: And the Activity (HT-29 [8])?
A: 45.9%

Q: What about the inhibition at 41 µg/mL (HT-29 [9]) of the same compound?
A: 80%

Q: What about the Activity (HT-29 [10]) of the same compound?
A: inactive

Q: And the Activity (HT-29 [11])?
A: inactive

Q: And the Activity (HT-29 [12])?
A: 61.4%

Q: What about the Activity (HT-29 [13]) of the same compound?
A: inactive

Q: And the Activity (HT-29 [14])?
A: inactive

Q: What about the Activity (HT-29 [15]) of the same compound?
A: Active

Q: And the inhibition (A549 [16])?
A: Active

Q: What about the Activity (HT-29 [17]) of the same compound?
A: 4.3%

Q: What about the Activity (HT-29 [18]) of the same compound?
A: Active

Q: And the Activity (HT-29 [19])?
A: inactive

Q: What about the Activity (HT-29 [20]) of the same compound?
A: 18.3%

Q: What about the Activity (HT-29 [21]) of the same compound?
A: 15.2%

Q: And the Activity (HT-29 [22])?
A: Active

Q: What about the Activity (HT-29 [23]) of the same compound?
A: 35.6%

Q: What about the Activity (HT-29 [24]) of the same compound?
A: 16.4%

Q: What about the Activity (HT-29 [25]) of the same compound?
A: Active

Q: And the Activity (HT-29 [26])?
A: 13.4%

Q: What about the Activity (HT-29 [27]) of the same compound?
A: inactive

Q: And the inhibition (MDA-MB-231)?
A: Active

Q: What about the Activity (HT-29 [28]) of the same compound?
A: inactive

Q: What about the Activity (HT-29 [29]) of the same compound?
A: inactive

Q: Which inhibition (HT-29 [6]) does the source give for `COc1c(C)c(OC)c(OC)c2c1C[C@H]1CN(C(=O)OC(C)C)C[C@H]3OC[C@@H]2N13` (relative stereo) here?
A: inactive

Q: What about the inhibition (A549 [16]) of the same compound?
A: inactive

Q: And the inhibition (MDA-MB-231)?
A: inactive

Q: For `COc1c(C)c(OC)c(OC)c2c1C[C@H]1CN(C(=O)OC(C)C)CC(=O)N1[C@H]2CO[Si](c1ccccc1)(c1ccccc1)C(C)(C)C` (relative stereo), which inhibition (HT-29 [6]) is on record?
A: inactive

Q: What about the inhibition (A549 [16]) of the same compound?
A: inactive

Q: And the inhibition (MDA-MB-231)?
A: inactive

Q: Which results are given for `COc1c(C)c(OC)c(OC)c2c1C[C@H]1CN(C(=O)OC(C)C)CC(=O)N1[C@H]2CO`?
A: inhibition (HT-29 [6]): inactive; inhibition (A549 [16]): inactive; inhibition (MDA-MB-231): inactive

Q: `COc1c(C)c(OC)c(OC)c2c1C[C@H]1CN(C(=O)OC(C)C)C[C@@H](C#N)N1[C@H]2COC(=O)/C=C/c1ccccc1` (relative stereo) was tested. Which inhibition (HT-29 [6]) did it give?
A: inactive

Q: And the inhibition (A549 [16])?
A: inactive

Q: And the inhibition (MDA-MB-231)?
A: inactive

Q: For `COc1c(C)c(OC)c(OC)c2c1C[C@H]1CN(C)CC(=O)N1[C@H]2CO` (relative stereo), which inhibition (HT-29 [6]) is on record?
A: inactive

Q: And the inhibition (A549 [16])?
A: inactive

Q: And the inhibition (MDA-MB-231)?
A: inactive

Q: What does the source list for `COc1c(C)c(OC)c(OC)c2c1C[C@H]1CNCC(=O)N1[C@H]2CO` (relative stereo)?
A: inhibition (HT-29 [6]): inactive; inhibition (A549 [16]): inactive; inhibition (MDA-MB-231): inactive

Q: Which inhibition (HT-29 [6]) does the source give for `COc1c(C)c(OC)c(OC)c2c1C[C@H]1CN(C(=O)OC(C)C)C[C@@H](C#N)N1[C@H]2COC(=O)c1cccc2ccccc12` (relative stereo) here?
A: inactive

Q: What about the inhibition (A549 [16]) of the same compound?
A: inactive

Q: And the inhibition (MDA-MB-231)?
A: inactive

Q: For `COc1c(C)c(OC)c(OC)c2c1C[C@H]1CN(C)C[C@H]3OC[C@@H]2N13` (relative stereo), which inhibition (HT-29 [6]) is on record?
A: inactive

Q: And the inhibition (A549 [16])?
A: inactive

Q: What about the inhibition (MDA-MB-231) of the same compound?
A: inactive

Q: Which inhibition (HT-29 [6]) does the source give for `COc1c(C)c(OC)c(OC)c2c1C[C@H]1CN(C(=O)OC(C)C)C[C@@H](C#N)N1[C@H]2CO` (relative stereo) here?
A: inactive

Q: What about the inhibition (A549 [16]) of the same compound?
A: inactive

Q: And the inhibition (MDA-MB-231)?
A: inactive
